In PubChem BioAssay AID330 (DTP/NCI, 2004):
Values joined by “and” are separate entries in the source; they are usually repeats but may differ in a detail not shown here. Equal values may be shown once. Inconclusive results and toxic doses are left out.

System: P388 leukemia ip, CD2F1 mice, survival T/C
Assay: NCI In Vivo Anticancer Drug Screen. Data for tumor model P388 Leukemia (intraperitoneal) in CD2F1 (CDF1) mice
Details: endpoint: median survival time, higher = longer survival
Outline: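 Mice carrying the transplanted tumor received test compound or vehicle. Survival was recorded in each group, and the value is the treated-group measurement divided by that of the vehicle-treated control group.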

[1] = dose: 100.0 mg/kg/injection, schedule: Q04DX003 (ip), vehicle: Klucel (hydroxypropylcellulose) (HPC)
[2] = dose: 200.0 mg/kg/injection, schedule: Q04DX003 (ip), vehicle: Klucel (hydroxypropylcellulose) (HPC)
[3] = dose: 400.0 mg/kg/injection, schedule: Q04DX003 (ip), vehicle: Klucel (hydroxypropylcellulose) (HPC)
[4] = dose: 6.25 mg/kg/injection, schedule: Q01DX009 (ip), vehicle: saline with Tween-80
[5] = dose: 12.5 mg/kg/injection, schedule: Q01DX009 (ip), vehicle: saline with Tween-80
[6] = dose: 50.0 mg/kg/injection, schedule: Q01DX009 (ip), vehicle: saline with Tween-80
[7] = dose: 100.0 mg/kg/injection, schedule: Q01DX009 (ip), vehicle: saline with Tween-80
[8] = dose: 50.0 mg/kg/injection, schedule: Q01DX005 (ip), vehicle: saline with Tween-80
[9] = dose: 100.0 mg/kg/injection, schedule: Q01DX005 (ip), vehicle: saline with Tween-80
[10] = dose: 200.0 mg/kg/injection, schedule: Q01DX005 (ip), vehicle: saline with Tween-80
[11] = dose: 25.0 mg/kg/injection, schedule: Q01DX005 (ip), vehicle: Klucel (hydroxypropylcellulose) (HPC)
[12] = dose: 50.0 mg/kg/injection, schedule: Q01DX005 (ip), vehicle: Klucel (hydroxypropylcellulose) (HPC)
[13] = dose: 100.0 mg/kg/injection, schedule: Q04DX003 (ip), vehicle: saline with Tween-80
[14] = dose: 200.0 mg/kg/injection, schedule: Q04DX003 (ip), vehicle: saline with Tween-80
[15] = dose: 400.0 mg/kg/injection, schedule: Q04DX003 (ip), vehicle: saline with Tween-80
[16] = dose: 200.0 mg/kg/injection, schedule: Q01DX009 (ip), vehicle: saline with Tween-80
[17] = dose: 400.0 mg/kg/injection, schedule: Q01DX009 (ip), vehicle: saline with Tween-80

Q: For Clc1ccc(CN2COc3c(cc(Cl)c4cccnc34)C2)cc1Cl, which T/C [1] is on record?
A: 97 % of control

Q: And the T/C [2]?
A: 97 % of control

Q: What about the T/C [3] of the same compound?
A: 89 % of control

Q: What does the source list for Cc1cc(C(=O)c2ccccc2)on1?
A: T/C [1]: 104 % of control; T/C [2]: 100 % of control; T/C [3]: 100 % of control

Q: Which results are given for CCOC(=O)CNc1c2ccc(Cl)cc2nc2ccc(OC)cc12?
A: T/C [4]: 97 % of control; T/C [5]: 104 % of control; T/C (dose: 25.0 mg/kg/injection, schedule: Q01DX009 (ip), vehicle: saline with Tween-80): 111 % of control; T/C [6]: 108 % of control; T/C [7]: 104 % of control

Q: For C=C1CC2(CCCCC2C)OC1=O (configuration not stated), which T/C (dose: 100.0 mg/kg/injection, schedule: Q01DX001 (ip), vehicle: saline) is on record?
A: 101 % of control

Q: What about the T/C (dose: 200.0 mg/kg/injection, schedule: Q01DX001 (ip), vehicle: saline) of the same compound?
A: 101 % of control

Q: And the T/C (dose: 400.0 mg/kg/injection, schedule: Q01DX001 (ip), vehicle: saline)?
A: 100 % of control

Q: How did the T/C (dose: 60.0 mg/kg/injection, schedule: Q01DX005 (ip), vehicle: saline with Tween-80) turn out when CN(C)c1ccc(C(c2cc3c(cc2O)OCO3)N2CCOCC2)cc1 (configuration not stated) was run?
A: 113 % of control

Q: What about the T/C (dose: 120.0 mg/kg/injection, schedule: Q01DX005 (ip), vehicle: saline with Tween-80) of the same compound?
A: 120 % of control

Q: What about the T/C (dose: 240.0 mg/kg/injection, schedule: Q01DX005 (ip), vehicle: saline with Tween-80) of the same compound?
A: 108 % of control

Q: Cc1cc(C)nc(NS(=O)(=O)c2ccc(NC(=S)Nc3ccccc3)cc2)n1 was tested. Which T/C [8] did it give?
A: 96 % of control

Q: What about the T/C [9] of the same compound?
A: 90 % of control

Q: And the T/C [10]?
A: 91 % of control

Q: With COC(=O)C(Cc1c[nH]c2ccccc12)NC(=O)c1ccccc1NC(=O)OCc1ccccc1 (configuration not stated) as the compound, how does the T/C (dose: 17.5 mg/kg/injection, schedule: Q01DX005 (ip), vehicle: Klucel (hydroxypropylcellulose) (HPC)) read?
A: 103 % of control

Q: And the T/C (dose: 35.0 mg/kg/injection, schedule: Q01DX005 (ip), vehicle: Klucel (hydroxypropylcellulose) (HPC))?
A: 104 % of control

Q: What about the T/C (dose: 70.0 mg/kg/injection, schedule: Q01DX005 (ip), vehicle: Klucel (hydroxypropylcellulose) (HPC)) of the same compound?
A: 97 % of control

Q: For O=C1c2cccc([N+](=O)[O-])c2C(=O)N1CC[P+](c1ccccc1)(c1ccccc1)c1ccccc1, which T/C (dose: 0.78 mg/kg/injection, schedule: Q01DX009 (ip), vehicle: water) is on record?
A: 97 % of control

Q: And the T/C (dose: 1.56 mg/kg/injection, schedule: Q01DX009 (ip), vehicle: water)?
A: 100 % of control

Q: What about the T/C (dose: 3.13 mg/kg/injection, schedule: Q01DX009 (ip), vehicle: water) of the same compound?
A: 94 % of control

Q: And the T/C (dose: 6.25 mg/kg/injection, schedule: Q01DX009 (ip), vehicle: water)?
A: 97 % of control

Q: And the T/C (dose: 12.5 mg/kg/injection, schedule: Q01DX009 (ip), vehicle: water)?
A: 95 % of control

Q: What about the T/C (dose: 25.0 mg/kg/injection, schedule: Q01DX009 (ip), vehicle: water) of the same compound?
A: 100 % of control

Q: What about the T/C (dose: 50.0 mg/kg/injection, schedule: Q01DX009 (ip), vehicle: water) of the same compound?
A: 109 % of control

Q: What about the T/C (dose: 100.0 mg/kg/injection, schedule: Q01DX009 (ip), vehicle: water) of the same compound?
A: 107 % of control

Q: For C=Cc1cc(OC)c2c(c1)c(=O)oc1c2cc(OC)c2c(O)ccc(C3OC(C(C)O)C(O)C3O)c21 (configuration not stated), which T/C (dose: 2.0 mg/kg/injection, schedule: Q04DX003 (ip), vehicle: DMSO) is on record?
A: 108 % of control

Q: What about the T/C (dose: 4.0 mg/kg/injection, schedule: Q04DX003 (ip), vehicle: DMSO) of the same compound?
A: 114 % of control

Q: What about the T/C (dose: 8.0 mg/kg/injection, schedule: Q04DX003 (ip), vehicle: DMSO) of the same compound?
A: 123 % of control

Q: What about the T/C (dose: 15.0 mg/kg/injection, schedule: Q01DX005 (ip), vehicle: Klucel (hydroxypropylcellulose) (HPC)) of the same compound?
A: 119 % of control

Q: What about the T/C (dose: 16.0 mg/kg/injection, schedule: Q04DX003 (ip), vehicle: DMSO) of the same compound?
A: 155 % of control

Q: And the T/C (dose: 30.0 mg/kg/injection, schedule: Q01DX005 (ip), vehicle: Klucel (hydroxypropylcellulose) (HPC))?
A: 107 % of control

Q: What about the T/C (dose: 32.0 mg/kg/injection, schedule: Q04DX003 (ip), vehicle: DMSO) of the same compound?
A: 155 % of control

Q: And the T/C (dose: 60.0 mg/kg/injection, schedule: Q01DX005 (ip), vehicle: Klucel (hydroxypropylcellulose) (HPC))?
A: 120 % of control

Q: What about the T/C (dose: 200.0 mg/kg/injection, schedule: Q01DX005 (ip), vehicle: Klucel (hydroxypropylcellulose) (HPC)) of the same compound?
A: 157 % of control

Q: And the T/C (dose: 400.0 mg/kg/injection, schedule: Q01DX005 (ip), vehicle: Klucel (hydroxypropylcellulose) (HPC))?
A: 98 % of control

Q: CNC(=O)N=Nc1ccccc1 was tested. Which T/C (dose: 50.0 mg/kg/injection, schedule: Q01DX005 (ip), vehicle: saline + Tween-80 + alcohol) did it give?
A: 100 % of control

Q: And the T/C (dose: 100.0 mg/kg/injection, schedule: Q01DX005 (ip), vehicle: saline + Tween-80 + alcohol)?
A: 100 % of control

Q: And the T/C (dose: 200.0 mg/kg/injection, schedule: Q01DX005 (ip), vehicle: saline + Tween-80 + alcohol)?
A: 100 % of control

Q: Which results are given for Cc1ccc(C2(c3ccc(C)cc3)CCCCCC2=O)cc1?
A: T/C [11]: 87 % of control; T/C [12]: 90 % of control; T/C (dose: 100.0 mg/kg/injection, schedule: Q01DX005 (ip), vehicle: Klucel (hydroxypropylcellulose) (HPC)): 97 % of control

Q: O=[N+]([O-])c1ccc(-c2cn3nc(-c4ccccc4)c(-c4ccccc4)nc3n2)cc1 was tested. Which T/C (dose: 12.5 mg/kg/injection, schedule: Q01DX005 (ip), vehicle: Klucel (hydroxypropylcellulose) (HPC)) did it give?
A: 110 % of control

Q: And the T/C [11]?
A: 98 % of control

Q: What about the T/C [12] of the same compound?
A: 108 % of control and 93 % of control

Q: With CCN1CCCC(Nc2cc(C)nc(Nc3nc4cc(Cl)c(Cl)cc4[nH]3)n2)C1 (configuration not stated) as the compound, how does the T/C (dose: 12.5 mg/kg/injection, schedule: Q01DX009 (ip), vehicle: Klucel (hydroxypropylcellulose) (HPC)) read?
A: 90 % of control

Q: How did the T/C [13] turn out when CC(C)COC(=O)CN(CC(=O)OCC(C)C)c1ccccc1 was run?
A: 109 % of control

Q: And the T/C [14]?
A: 104 % of control

Q: And the T/C [15]?
A: 113 % of control

Q: Cc1cc2ncnn2cn1 was tested. Which T/C [13] did it give?
A: 99 % of control

Q: What about the T/C [14] of the same compound?
A: 99 % of control

Q: And the T/C [15]?
A: 93 % of control

Q: Which T/C (dose: 100.0 mg/kg/injection, schedule: Q01DX001 (ip), vehicle: saline with Tween-80) does the source give for COc1ccc(NCC(=O)O)c([N+](=O)[O-])c1 here?
A: 100 % of control

Q: What about the T/C (dose: 200.0 mg/kg/injection, schedule: Q01DX001 (ip), vehicle: saline with Tween-80) of the same compound?
A: 109 % of control

Q: What about the T/C (dose: 400.0 mg/kg/injection, schedule: Q01DX001 (ip), vehicle: saline with Tween-80) of the same compound?
A: 109 % of control

Q: Which results are given for C(=N\n1cnnc1)/c1ccccc1/C=N/n1cnnc1?
A: T/C [7]: 100 % of control; T/C [16]: 90 % of control; T/C [17]: 100 % of control

Q: Clc1cccc2nnc(Br)n12 was tested. Which T/C (dose: 50.0 mg/kg/injection, schedule: Q01DX001 (ip), vehicle: Klucel (hydroxypropylcellulose) (HPC)) did it give?
A: 98 % of control

Q: What about the T/C (dose: 100.0 mg/kg/injection, schedule: Q01DX001 (ip), vehicle: Klucel (hydroxypropylcellulose) (HPC)) of the same compound?
A: 102 % of control

Q: And the T/C (dose: 200.0 mg/kg/injection, schedule: Q01DX001 (ip), vehicle: Klucel (hydroxypropylcellulose) (HPC))?
A: 111 % of control

Q: How did the T/C (dose: 3.13 mg/kg/injection, schedule: Q01DX009 (ip), vehicle: saline with Tween-80) turn out when N=C(N)c1ccc(C#Cc2ccc(C(=N)N)cc2)cc1 was run?
A: 94 % of control

Q: And the T/C [4]?
A: 92 % of control

Q: What about the T/C [5] of the same compound?
A: 95 % of control

Q: Which T/C [6] does the source give for COc1ccc(/C=N/Nc2ccccc2)cc1 here?
A: 99 % of control

Q: And the T/C [7]?
A: 92 % of control

Q: What about the T/C [16] of the same compound?
A: 99 % of control

Q: What about the T/C [17] of the same compound?
A: 94 % of control

Q: With CN1C(=O)C(n2[nH]c(=O)n(-c3ccccc3)c2=O)C(=O)N(C)C1=O as the compound, how does the T/C (dose: 50.0 mg/kg/injection, schedule: Q01DX009 (ip), vehicle: Klucel (hydroxypropylcellulose) (HPC)) read?
A: 99 % of control

Q: And the T/C (dose: 100.0 mg/kg/injection, schedule: Q01DX009 (ip), vehicle: Klucel (hydroxypropylcellulose) (HPC))?
A: 89 % of control

Q: What about the T/C (dose: 200.0 mg/kg/injection, schedule: Q01DX009 (ip), vehicle: Klucel (hydroxypropylcellulose) (HPC)) of the same compound?
A: 103 % of control

Q: Which results are given for O=C1CCC(CBr)(C(=O)O)O1 (configuration not stated)?
A: T/C (dose: 50.0 mg/kg/injection, schedule: Q01DX009 (ip), vehicle: saline): 102 % of control; T/C (dose: 100.0 mg/kg/injection, schedule: Q01DX009 (ip), vehicle: saline): 111 % of control; T/C (dose: 200.0 mg/kg/injection, schedule: Q01DX009 (ip), vehicle: saline): 100 % of control

Q: CCN(CC)C(=O)c1c(C(=O)OC)c(C)n(NC(N)=O)c1C was tested. Which T/C [8] did it give?
A: 105 % of control

Q: And the T/C [9]?
A: 107 % of control

Q: What about the T/C [10] of the same compound?
A: 108 % of control
